The values that follow come from patent US10050214B2, “Near-ultraviolet stimulated light-emitting compound and production method for same” (NANO CMS CO., LTD., priority 2014, dated 2018).

Structures are written as SMILES.

Type in all cases: physicochemical
The nature of series [1]: Residual fluorescent intensity after artificial light exposure (ASTM G 154-06 Cycle 1). The procedure:
The obtained quinazolinone compound was irradiated with near-UV light in the wavelength of 365 nm, and the intensity of discharged fluorescence was measured. The fluorescent intensity was measured using a fluorescence spectrometer (DARSA-5000, PSI Co., Ltd.), under the condition of 365 nm stimulation wavelength, cumulative average of five-time measurements, and 1024×128 CCD sensor shape. In addition, measurement of residual fluorescent intensity after artificial light exposure was repeated identically according to ASTM G 154-06 Cycle 1 standard.

The nature of series [2]: Weatherability test (QUV tester, ASTM G154-06 Cycle No. 1). The following applies: in words. The procedure: (§1) In addition, compositions respectively containing 10% compounds of embodiments 6 and 11 were sealed on a non-florescent paper, using a grinder and an offset plate printing press (HFT-225, HONGFAT machinery manufacturing Co., Ltd.). Chemical resistance tests and solvent resistance tests were performed on the printed material for 30 minutes at 23° C. with respect to each of nine product items. Furthermore, grades with reference to the standard and remaining fluorescence intensities were measured by irradiating the near-ultraviolet light of 365 nm wavelength, using a weatherability tester (QUV, Q-LAB Corporation), according to ASTM G154-06 Cycle No. 1 standard (except for the condensation conditions).

A short description of series [3]: Thermal stability (melting point measuring instrument). The conditions noted are these: summary of TABLE 3. The procedure: (§2) Further, the melting point was measured using the melting point measuring instrument (M5000, KRÜSS GmbH), by assuming that the phase change is at the point where the change in transmissivity reaches 20%. Solubility in organic solvents was measured with respect to eight product items.

The nature of series [4]: Solubility in organic solvents (eight product items). The conditions noted are these: for Solubility, 2% Sodium Hydroxide (Caustic Soda) Solution: 2% Sodium Hydroxide solution; for solubility in organic solvents (in words): summary of TABLE 3. The procedure: as §2
Series [5] is described as follows: Chemical resistance and solvent resistance tests on printed material. The conditions noted are these: summary of TABLE 4; printed material with 10% compound. How it is done: as §1

In the case of `COc1ccc(-c2nc3ccccc3c(=O)[nH]2)c(O)c1` [Embodiment 7, 2-(2-hydroxy-4-methoxyphenyl)quinazoline-4-(3H)-on], the “The remaining fluorescence intensity (after artificial light exposure) Coating (10%)” value (“The remaining fluorescence intensity … (10%)” for short) in series [1] is reported as 40%.

Turning to `O=c1[nH]c(-c2ccc(Cl)cc2O)nc2cc(Cl)ccc12` [Embodiment 12, 7-chloro-2-(4-chloro-2-hydroxyphenyl)quinazoline-4(3H)-on], in series [1], the “The remaining fluorescence intensity … (10%)” value is listed as 40%.

For the compound `O=c1[nH]c(-c2cc(Cl)ccc2O)nc2ccccc12` [Embodiment 4, 2-(5-chloro-2-hydroxyphenyl)quinazoline-4(3H)-on], in series [1], the “The remaining fluorescence intensity … (10%)” value came to 65%.

As to `COc1ccc(-c2nc3ccc(Cl)cc3c(=O)[nH]2)c(O)c1` [Embodiment 8, 6-chloro-2-(2-hydroxy-4-methoxyphenyl)quinazoline-4(3H)-on], the “The remaining fluorescence intensity … (10%)” value in series [1] was found to be 45%.

Regarding `O=c1[nH]c(-c2ccc(Cl)cc2O)nc2ccc(Cl)cc12` [Embodiment 11, 6-chloro-2-(4-chloro-2-hydroxyphenyl)quinazoline-4(3H)-on], the “light fastness grade and remaining fluorescence intensity compared with conventional commercial products” value in series [2] was “higher light fastness grade and remaining fluorescence intensity than those of conventional commercial products”. The “thermal stability (in words)” value in series [3] is “high”. Further, in series [4], the “Solubility, 2% Sodium Hydroxide (Caustic Soda) Solution” value is on record as “Resolved” and the “solubility in organic solvents (in words)” value was “low”. In addition, the “The remaining fluorescence intensity … (10%)” value in series [1] amounted to 70%. The “solvent resistance (in words)” value in series [5] is reported as “high solvent resistance”.

Regarding `O=c1[nH]c(-c2ccc(Cl)cc2O)nc2ccccc12` [Embodiment 10, 2-(4-chloro-2-hydroxyphenyl)quinazoline-4(3H)-on], the “The remaining fluorescence intensity … (10%)” value in series [1] worked out at 60%.

On to `O=c1[nH]c(-c2cc(F)ccc2O)nc2ccccc12` [Embodiment 13, 2-(5-fluoro-2-hyroxyphenyl)quinazoline-4(3H)-on], for which, in series [1], the “The remaining fluorescence intensity … (10%)” value was 65%.

For `O=c1[nH]c(-c2c(O)cccc2Cl)nc2ccccc12` [Embodiment 16, 2-(2-chloro-6-hyrdoxyphenyl)quinazoline-4(3H)-on], the “The remaining fluorescence intensity … (10%)” value in series [1] came to 60%.

`O=c1[nH]c(-c2cccc(Cl)c2O)nc2ccccc12` [Embodiment 17, 2-(3-choloro-2-hydroxyphenyl)quinazoline-4(3H)-on]: the “The remaining fluorescence intensity … (10%)” value in series [1] is listed as 60%.

`O=c1[nH]c(-c2cc(Cl)ccc2O)nc2cc(Cl)ccc12` [Embodiment 6, 7-chloro-2-(5-chloro-2-hydroxyphenyl)quinazoline-4(3H)-on]: the “light fastness grade and remaining fluorescence intensity compared with conventional commercial products” value in series [2] is “higher light fastness grade and remaining fluorescence intensity than those of conventional commercial products”. Also, in series [3], the “thermal stability (in words)” value is on record as “high”. Also, in series [4], the “Solubility, 2% Sodium Hydroxide (Caustic Soda) Solution” value is on record as “Resolved” and the “solubility in organic solvents (in words)” value was “low”. The “The remaining fluorescence intensity … (10%)” value in series [1] was 70%. In series [5], the “solvent resistance (in words)” value is recorded as “high solvent resistance”.

Regarding `O=c1[nH]c(-c2cc(Cl)ccc2O)nc2ccc(Cl)cc12` [Embodiment 5, 6-choloro-2-(5-chloro-2-hydroxyphenyl)quinazoline-4(3H)-on], in series [1], the “The remaining fluorescence intensity … (10%)” value amounted to 80%.
